Converted amounts (≈) assume the structure as drawn. Where two headings read alike, the source gives them in different places.
Tests used:
S. aureus = assay: Expanded panel broth microdilution MIC/MBC; settings: for MIC: Staphylococcus aureus
Enterococcus faecalis = assay: Expanded panel broth microdilution MIC/MBC; assay type: cell-based
[1] = tested on: Streptococcus constellatus; assay: Expanded panel broth microdilution MIC; assay type: cell-based
MSSA ATCC 29213 = assay: In-house broth microdilution MIC screening; assay type: cell-based; settings: Staphylococcus aureus; broth microdilution; read-out: MIC Value, MSSA ATCC 29213
Streptococcus anginosus = assay: Expanded panel broth microdilution MIC/MBC; assay type: cell-based; settings: for MIC: Streptococcus anginosus, read-out: MIC
[2] = tested on: MRSA ATCC BAA 1556 (USA300) biofilm; assay: Static MRSA biofilm killing, plastic microtiter plate, MEM
Enterococcus faecium = assay: Expanded panel broth microdilution MIC/MBC; assay type: cell-based; settings: for MIC: Enterococcus faecium, read-out: MIC
Streptococcus pyogenes = assay: Expanded panel broth microdilution MIC/MBC; assay type: cell-based; settings: for MIC: Streptococcus pyogenes
[3] = Single-dose nebulized nose-only inhalation PK in healthy rats; assay type: in vivo, rat; settings: male, Sprague Dawley, rat, in vivo
Outline: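 Ten or eleven rats per cohort dosed once by nebulized nose-only inhalation, delivered dose estimated from 5 min aerosol filter sampling. Lungs and plasma collected from immediately postdose (~30 min) to 168 h; drug quantified by LC-MS/MS after protein precipitation. PK by noncompartmental analysis, linear up/log down.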

**Q.** For `CCCCCCCCCCNC(=O)CNC1(C)CC(OC2C(Oc3c4cc5cc3Oc3ccc(cc3Cl)C(O)C3NC(=O)C(NC(=O)C5NC(=O)C(CC(N)=O)NC(=O)C(NC(=O)C(CC(C)C)NC)C(O)c5ccc(c(Cl)c5)O4)c4ccc(O)c(c4)-c4c(O)cc(O)cc4C(C(=O)O)NC3=O)OC(CO)C(O)C2O)OC(C)C1O` (stereo not drawn) [RV94], which “MIC:MBC” value (S. aureus; S. aureus MRSA, MBC median of n = 5) is on record?
**A.** 1

**Q.** And the “MIC:MBC” value (S. aureus; S. aureus MSSA, MBC on one organism)?
**A.** 8

**Q.** And the “MIC:MBC” value (S. aureus; S. aureus VISA, MBC median of n = 2)?
**A.** 2

**Q.** What about the “MIC:MBC” value (S. aureus; S. aureus hVISA, MBC on one organism) of the same compound?
**A.** 8

**Q.** And the MIC (S. aureus; ATCC13709 / MSSA, S. aureus ATCC 13709, MSSA)?
**A.** 0.03 µg/mL (≈ 0.0182 µM)

**Q.** What about the MIC (S. aureus; ATCC29213 / MSSA, S. aureus ATCC 29213, MSSA) of the same compound?
**A.** 0.015 µg/mL (≈ 0.00911 µM)

**Q.** And the MIC (S. aureus; ATCC43300 / MRSA, S. aureus ATCC 43300, MRSA)?
**A.** 0.015 µg/mL (≈ 0.00911 µM)

**Q.** And the MIC (S. aureus; ATCCBAA1556|MRSA|USA300, S. aureus ATCC BAA-1556, MRSA, USA300 (expanded panel))?
**A.** 0.03 µg/mL (≈ 0.0182 µM)

**Q.** What about the MIC (S. aureus; ATCCBAA1756|MRSA|NRS384|USA300, S. aureus NRS 384, ATCC BAA-1756, MRSA, USA300) of the same compound?
**A.** 0.015 µg/mL (≈ 0.00911 µM)

**Q.** What about the MIC (S. aureus; MRSA / NRS123 / USA400, S. aureus NRS123, MRSA, USA400) of the same compound?
**A.** 0.015 µg/mL (≈ 0.00911 µM)

**Q.** And the MIC (S. aureus; MRSA / NRS725 / USA300, S. aureus NRS725, MRSA, USA300)?
**A.** 0.015 µg/mL (≈ 0.00911 µM)

**Q.** And the MIC (S. aureus; MRSA / USA300, S. aureus MMX 3982, MRSA, USA300)?
**A.** 0.015 µg/mL (≈ 0.00911 µM)

**Q.** And the MIC (S. aureus; MRSA, S. aureus MMX 7899, MRSA)?
**A.** 0.015 µg/mL (≈ 0.00911 µM)

**Q.** And the MIC (S. aureus; MRSA, S. aureus MMX 7900, MRSA)?
**A.** 0.015 µg/mL (≈ 0.00911 µM)

**Q.** What about the MIC (S. aureus; MRSA, S. aureus MMX 7901, MRSA) of the same compound?
**A.** 0.015 µg/mL (≈ 0.00911 µM)

**Q.** And the MIC (S. aureus; MRSA, S. aureus MMX 7902, MRSA)?
**A.** 0.03 µg/mL (≈ 0.0182 µM)

**Q.** What about the MIC (S. aureus; MRSA, S. aureus MMX 7903, MRSA) of the same compound?
**A.** 0.015 µg/mL (≈ 0.00911 µM)

**Q.** And the MIC (S. aureus; MRSA, read-out: MIC (median), S. aureus MRSA, 12 isolates)?
**A.** 0.015 µg/mL (≈ 0.00911 µM)

**Q.** What about the MIC (S. aureus; MSSA, S. aureus MMX 7907, MSSA) of the same compound?
**A.** 0.03 µg/mL (≈ 0.0182 µM)

**Q.** And the MIC (S. aureus; MSSA, S. aureus MMX 7908, MSSA)?
**A.** 0.015 µg/mL (≈ 0.00911 µM)

**Q.** What about the MIC (S. aureus; MSSA, read-out: MIC (median), S. aureus MSSA, 4 isolates) of the same compound?
**A.** 0.023 µg/mL (≈ 0.014 µM)

**Q.** And the MIC (S. aureus; NRS1 / VISA, S. aureus NRS1, VISA, Mu50)?
**A.** 0.25 µg/mL (≈ 0.152 µM)

**Q.** What about the MIC (S. aureus; NRS2, S. aureus NRS2, hVISA;Mu3) of the same compound?
**A.** 0.03 µg/mL (≈ 0.0182 µM)

**Q.** And the MIC (S. aureus; NRS4 / VISA, S. aureus NRS4, VISA)?
**A.** 0.06 µg/mL (≈ 0.0364 µM)

**Q.** And the MIC (S. aureus; NRS13 / VISA, S. aureus NRS13, VISA)?
**A.** 0.12 µg/mL (≈ 0.0729 µM)

**Q.** And the MIC (S. aureus; NRS22 / VISA, S. aureus NRS22, VISA)?
**A.** 0.12 µg/mL (≈ 0.0729 µM)

**Q.** What about the MIC (S. aureus; NRS23, S. aureus NRS23, hVISA) of the same compound?
**A.** 0.12 µg/mL (≈ 0.0729 µM)

**Q.** And the MIC (S. aureus; NRS52 / VISA, S. aureus NRS52, VISA)?
**A.** 0.06 µg/mL (≈ 0.0364 µM)

**Q.** What about the MIC (S. aureus; VISA, read-out: MIC (median), S. aureus VISA, 5 isolates) of the same compound?
**A.** 0.12 µg/mL (≈ 0.0729 µM)

**Q.** And the MIC (S. aureus; VRSA, read-out: MIC (median), S. aureus VRSA, 12 isolates (JMI Laboratories))?
**A.** 4 µg/mL (≈ 2.43 µM)

**Q.** And the MIC (S. aureus; read-out: MIC (median), S. aureus hVISA, 2 isolates)?
**A.** 0.08 µg/mL (≈ 0.0486 µM)

**Q.** And the “MIC, fold activity reduction compared to RV40” value (S. aureus; VISA)?
**A.** 2 fold

**Q.** And the “MIC, fold enhancement in comparison to vancomycin” value (S. aureus; VISA)?
**A.** 30 fold

**Q.** And the “MIC, fold activity reduction compared to RV40” value (S. aureus; hVISA)?
**A.** 3 fold

**Q.** What about the “MIC, fold enhancement in comparison to vancomycin” value (S. aureus; hVISA) of the same compound?
**A.** 18 fold

**Q.** What about the “MIC, fold enhancement compared to telavancin” value (S. aureus; hVISA and VISA (both strains)) of the same compound?
**A.** 2 fold

**Q.** And the “MIC:MBC” value (Enterococcus faecalis; E. faecalis VSE, MBC on one organism)?
**A.** >8

**Q.** And the “MIC:MBC” value (Enterococcus faecalis; E. faecalis VanA VRE)?
**A.** >8

**Q.** And the MIC (Enterococcus faecalis; E. faecalis VanA VRE, 1 isolate)?
**A.** 0.03 µg/mL (≈ 0.0182 µM)

**Q.** What about the MIC (Enterococcus faecalis; Enterococcus faecalis, ATCC29212, E. faecalis ATCC 29212, VSE, read-out: MIC) of the same compound?
**A.** 0.03 µg/mL (≈ 0.0182 µM)

**Q.** And the MIC (Enterococcus faecalis; Enterococcus faecalis, E. faecalis MMX 1086, VanA VRE, read-out: MIC)?
**A.** 0.03 µg/mL (≈ 0.0182 µM)

**Q.** And the MIC (Enterococcus faecalis; Enterococcus faecalis, E. faecalis MMX 4176, VSE, read-out: MIC)?
**A.** 0.03 µg/mL (≈ 0.0182 µM)

**Q.** And the MIC (Enterococcus faecalis; Enterococcus faecalis, E. faecalis VSE, 2 isolates, read-out: MIC (median))?
**A.** 0.03 µg/mL (≈ 0.0182 µM)

**Q.** And the MIC ([1]; S. constellatus AGS, 1 isolate)?
**A.** 0.008 µg/mL (≈ 0.00486 µM)

**Q.** And the MIC ([1]; Streptococcus constellatus, S. constellatus (AGS) MMX 5677, read-out: MIC)?
**A.** 0.008 µg/mL (≈ 0.00486 µM)

**Q.** What about the MIC (MSSA ATCC 29213) of the same compound?
**A.** 0.031 µg/mL (≈ 0.0188 µM)

**Q.** And the “MIC:MBC” value (Streptococcus anginosus; S. anginosus AGS)?
**A.** >8

**Q.** What about the MIC (Streptococcus anginosus; ATCC33397, S. anginosus (AGS) ATCC 33397) of the same compound?
**A.** 0.015 µg/mL (≈ 0.00911 µM)

**Q.** And the MIC (Streptococcus anginosus; S. anginosus AGS, 1 isolate)?
**A.** 0.015 µg/mL (≈ 0.00911 µM)

**Q.** What about the “Reduction in MRSA biofilm titer versus control” value ([2]; 2.5 μg/ml) of the same compound?
**A.** 1 log10 CFU/ml

**Q.** What about the “Reduction in MRSA biofilm titer versus control” value ([2]; doses 1 to 10 μg/ml) of the same compound?
**A.** approximately 2 log10 CFU/ml

**Q.** What about the “Concentrations with statistically significant reduction versus control biofilm” value ([2]; two-way ANOVA, Bonferroni) of the same compound?
**A.** no statistical significance

**Q.** What about the “MIC:MBC” value (Enterococcus faecium; E. faecium VanA VRE) of the same compound?
**A.** >8

**Q.** And the “MIC:MBC” value (Enterococcus faecium; E. faecium VanB VRE)?
**A.** >8

**Q.** And the MIC (Enterococcus faecium; E. faecium MMX 4204, VSE)?
**A.** 0.015 µg/mL (≈ 0.00911 µM)

**Q.** And the MIC (Enterococcus faecium; E. faecium VSE, 1 isolate)?
**A.** 0.015 µg/mL (≈ 0.00911 µM)

**Q.** What about the MIC (Enterococcus faecium; VRE, E. faecium MMX 173, VanB VRE) of the same compound?
**A.** 0.03 µg/mL (≈ 0.0182 µM)

**Q.** What about the MIC (Enterococcus faecium; VRE, E. faecium MMX 851, VanA VRE) of the same compound?
**A.** 2 µg/mL (≈ 1.21 µM)

**Q.** And the MIC (Enterococcus faecium; VRE, E. faecium VanA VRE, 1 isolate)?
**A.** 2 µg/mL (≈ 1.21 µM)

**Q.** What about the MIC (Enterococcus faecium; VRE, E. faecium VanB VRE, 1 isolate) of the same compound?
**A.** 0.03 µg/mL (≈ 0.0182 µM)

**Q.** And the “MIC:MBC” value (Streptococcus pyogenes; S. pyogenes ermR)?
**A.** 1

**Q.** What about the MIC (Streptococcus pyogenes; ATCC19615, S. pyogenes ATCC 19615, read-out: MIC) of the same compound?
**A.** 0.015 µg/mL (≈ 0.00911 µM)

**Q.** And the MIC (Streptococcus pyogenes; S. pyogenes MMX 946, ermR, read-out: MIC)?
**A.** 0.008 µg/mL (≈ 0.00486 µM)

**Q.** And the MIC (Streptococcus pyogenes; S. pyogenes MMX 8778, read-out: MIC)?
**A.** 0.008 µg/mL (≈ 0.00486 µM)

**Q.** And the MIC (Streptococcus pyogenes; S. pyogenes ermR, 1 isolate, read-out: MIC)?
**A.** 0.008 µg/mL (≈ 0.00486 µM)

**Q.** And the MIC (Streptococcus pyogenes; S. pyogenes, 2 isolates, read-out: MIC (median))?
**A.** 0.012 µg/mL (≈ 0.00729 µM)

**Q.** And the Pulmonary dose [3]?
**A.** 1.10 mg/kg

**Q.** And the “Drug lung level at 120 h” value ([3]; 120 h)?
**A.** 45%

**Q.** And the “Primary hydrolysis byproduct lung level at 120 h” value ([3]; 120 h)?
**A.** 0.1%

**Q.** And the Kp ([3]; inhaled or intranasal)?
**A.** 1870

**Q.** What about the “Lung AUC0-∞” value ([3]; inhaled or intranasal) of the same compound?
**A.** 40671 µg·h/g

**Q.** What about the “Lung Cmax” value ([3]; inhaled or intranasal) of the same compound?
**A.** 262 µg/g

**Q.** And the “Lung t1/2” value ([3]; inhaled or intranasal)?
**A.** 108 h

**Q.** And the “Plasma Cmax” value ([3]; inhaled or intranasal)?
**A.** 140 ng/mL

**Q.** And the “Hydrolysis product RV101 relative to parent concentration at lung Cmax” value ([3]; inhaled or intranasal, 120 h)?
**A.** 0.1%

From PMC8373216, “Development and Preclinical Evaluation of New Inhaled Lipoglycopeptides for the Treatment of Persistent Pulmonary Methicillin-Resistant Staphylococcus aureus Infections” (Antimicrobial Agents and Chemotherapy, 2021)
